Assay results reported in ChEMBL document CHEMBL5723584 (2023).

Key:
[1] = molecular target: Vascular endothelial growth factor receptor 3 (Homo sapiens) (UniProt P35916); test: activity of Flt4(h) at 1.0 µM in the Eurofins Kinase panel; settings: Compound concentration 1.0 uM
[2] = molecular target: Ephrin type-A receptor 2 (Homo sapiens) (UniProt P29317); test: activity of EphA2(h) at 1.0 µM in the Eurofins Kinase panel; settings: Compound concentration 1.0 uM
[3] = molecular target: Rho-associated protein kinase 2 (Homo sapiens) (UniProt O75116); test: activity of ROCK-II(h) at 1.0 µM in the Eurofins Kinase panel; settings: Compound concentration 1.0 uM
[4] = molecular target: Ephrin type-B receptor 3 (Homo sapiens) (UniProt P54753); test: activity of EphB3(h) at 1.0 µM in the Eurofins Kinase panel; settings: Compound concentration 1.0 uM
[5] = molecular target: Muscle, skeletal receptor tyrosine-protein kinase (Homo sapiens) (UniProt O15146); test: activity of MuSK(h) at 1.0 µM in the Eurofins Kinase panel; settings: Compound concentration 1.0 uM
[6] = molecular target: Protein kinase C eta type (Homo sapiens) (UniProt P24723); test: activity of PKCeta(h) at 1.0 µM in the Eurofins Kinase panel; settings: Compound concentration 1.0 uM
[7] = molecular target: Calcium/calmodulin-dependent protein kinase type 1G (Homo sapiens) (UniProt Q96NX5); test: activity of CaMKIgamma(h) at 1.0 µM in the Eurofins Kinase panel; settings: Compound concentration 1.0 uM
[8] = molecular target: Serine/threonine-protein kinase PAK 4 (Homo sapiens) (UniProt O96013); test: activity of PAK4(h) at 1.0 µM in the Eurofins Kinase panel; settings: Compound concentration 1.0 uM
[9] = molecular target: Serine/threonine-protein kinase PRP4 homolog (Homo sapiens) (UniProt Q13523); test: activity of PRP4(h) at 1.0 µM in the Eurofins Kinase panel; settings: Compound concentration 1.0 uM
[10] = molecular target: AP2-associated protein kinase 1 (Homo sapiens, UniProt Q2M2I8); test: Promega NanoBRET (AAK1)
[11] = molecular target: SRSF protein kinase 2 (Homo sapiens) (UniProt P78362); test: activity of SRPK2(h) at 1.0 µM in the Eurofins Kinase panel; settings: Compound concentration 1.0 uM
[12] = molecular target: Serine/threonine-protein kinase DCLK2 (Homo sapiens) (UniProt Q8N568); test: activity of DCAMKL2(h) at 1.0 µM in the Eurofins Kinase panel; settings: Compound concentration 1.0 uM
[13] = molecular target: Mitogen-activated protein kinase kinase kinase kinase 2 (Homo sapiens) (UniProt Q12851); test: activity of GCK(h) at 1.0 µM in the Eurofins Kinase panel; settings: Compound concentration 1.0 uM
[14] = molecular target: Death-associated protein kinase 1 (Homo sapiens) (UniProt P53355); test: activity of DAPK1(h) at 1.0 µM in the Eurofins Kinase panel; settings: Compound concentration 1.0 uM
[15] = molecular target: Cyclin-G-associated kinase (Homo sapiens, UniProt O14976); test: Promega NanoBRET (GAK)
[16] = molecular target: Serine/threonine-protein kinase Nek2 (Homo sapiens) (UniProt P51955); test: activity of NEK2(h) at 1.0 µM in the Eurofins Kinase panel; settings: Compound concentration 1.0 uM
[17] = molecular target: G protein-coupled receptor kinase 3 (Homo sapiens) (UniProt P35626); test: activity of GRK3(h) at 1.0 µM in the Eurofins Kinase panel; settings: Compound concentration 1.0 uM
[18] = molecular target: STE20-like serine/threonine-protein kinase (Homo sapiens) (UniProt Q9H2G2); test: activity of SLK(h) at 1.0 µM in the Eurofins Kinase panel; settings: Compound concentration 1.0 uM
[19] = molecular target: Serine/threonine-protein kinase Nek11 (Homo sapiens) (UniProt Q8NG66); test: activity of NEK11(h) at 1.0 µM in the Eurofins Kinase panel; settings: Compound concentration 1.0 uM
[20] = molecular target: Mitogen-activated protein kinase kinase kinase 10 (Homo sapiens) (UniProt Q02779); test: activity of MLK2(h) at 1.0 µM in the Eurofins Kinase panel; settings: Compound concentration 1.0 uM
[21] = molecular target: Receptor tyrosine-protein kinase erbB-4 (Homo sapiens) (UniProt Q15303); test: activity of ErbB4(h) at 1.0 µM in the Eurofins Kinase panel; settings: Compound concentration 1.0 uM
[22] = molecular target: Mitogen-activated protein kinase kinase kinase 20 (Homo sapiens) (UniProt Q9NYL2); test: activity of ZAK(h) at 1.0 µM in the Eurofins Kinase panel; settings: Compound concentration 1.0 uM
[23] = molecular target: Serine/threonine-protein kinase 35 (Homo sapiens) (UniProt Q8TDR2); test: activity of CLIK1(h) at 1.0 µM in the Eurofins Kinase panel; settings: Compound concentration 1.0 uM
[24] = molecular target: RAC-alpha serine/threonine-protein kinase (Homo sapiens) (UniProt P31749); test: activity of PKBalpha(h) at 1.0 µM in the Eurofins Kinase panel; settings: Compound concentration 1.0 uM
[25] = molecular target: Mitogen-activated protein kinase 9 (Homo sapiens) (UniProt P45984); test: activity of JNK2alpha2(h) at 1.0 µM in the Eurofins Kinase panel; settings: Compound concentration 1.0 uM
[26] = molecular target: Ribosomal protein S6 kinase alpha-1 (Homo sapiens) (UniProt Q15418); test: activity of Rsk1(h) at 1.0 µM in the Eurofins Kinase panel; settings: Compound concentration 1.0 uM
[27] = molecular target: Serine/threonine-protein kinase MRCK beta (Homo sapiens) (UniProt Q9Y5S2); test: activity of MRCKbeta(h) at 1.0 µM in the Eurofins Kinase panel; settings: Compound concentration 1.0 uM
Homo sapiens = species: Homo sapiens; test: activity of MAPK2(h) at 1.0 µM in the Eurofins Kinase panel; settings: Compound concentration 1.0 uM
[28] = molecular target: Receptor-type tyrosine-protein kinase FLT3 (Homo sapiens) (UniProt P36888); test: activity of Flt3(h) at 1.0 µM in the Eurofins Kinase panel; settings: Compound concentration 1.0 uM
[29] = molecular target: Tyrosine-protein kinase Lyn (Homo sapiens) (UniProt P07948); test: activity of Lyn(h) at 1.0 µM in the Eurofins Kinase panel; settings: Compound concentration 1.0 uM
[30] = molecular target: Tyrosine-protein kinase Srms (Homo sapiens) (UniProt Q9H3Y6); test: activity of SRMS(h) at 1.0 µM in the Eurofins Kinase panel; settings: Compound concentration 1.0 uM
[31] = molecular target: TGF-beta receptor type-1 (Homo sapiens) (UniProt P36897); test: activity of TGFBR1(h) at 1.0 µM in the Eurofins Kinase panel; settings: Compound concentration 1.0 uM
[32] = molecular target: Serine/threonine-protein kinase 33 (Homo sapiens) (UniProt Q9BYT3); test: activity of STK33(h) at 1.0 µM in the Eurofins Kinase panel; settings: Compound concentration 1.0 uM
[33] = molecular target: MAP kinase-interacting serine/threonine-protein kinase 2 (Homo sapiens, UniProt Q9HBH9); test: Promega NanoBRET (MKNK2)
[34] = molecular target: Receptor tyrosine-protein kinase erbB-2 (Homo sapiens) (UniProt P04626); test: activity of ErbB2(h) at 1.0 µM in the Eurofins Kinase panel; settings: Compound concentration 1.0 uM
[35] = molecular target: Phosphatidylinositol 4-phosphate 5-kinase type-1 gamma (Homo sapiens) (UniProt O60331); test: activity of PIP5K1gamma(h) at 1.0 µM in the Eurofins Kinase panel; settings: Compound concentration 1.0 uM
[36] = molecular target: Eukaryotic translation initiation factor 2-alpha kinase 1 (Homo sapiens) (UniProt Q9BQI3); test: activity of HRI(h) at 1.0 µM in the Eurofins Kinase panel; settings: Compound concentration 1.0 uM
[37] = molecular target: Insulin-like growth factor 1 receptor (Homo sapiens) (UniProt P08069); test: activity of IGF-1R(h), activated at 1.0 µM in the Eurofins Kinase panel; settings: Compound concentration 1.0 uM
[38] = molecular target: Insulin receptor (Homo sapiens) (UniProt P06213); test: activity of IR(h) at 1.0 µM in the Eurofins Kinase panel; settings: Compound concentration 1.0 uM
[39] = molecular target: Wee1-like protein kinase 2 (Homo sapiens) (UniProt P0C1S8); test: activity of Wee1B(h) at 1.0 µM in the Eurofins Kinase panel; settings: Compound concentration 1.0 uM

Chain of Ephrin type-B receptor 3 (Homo sapiens) (P54753 whole entry): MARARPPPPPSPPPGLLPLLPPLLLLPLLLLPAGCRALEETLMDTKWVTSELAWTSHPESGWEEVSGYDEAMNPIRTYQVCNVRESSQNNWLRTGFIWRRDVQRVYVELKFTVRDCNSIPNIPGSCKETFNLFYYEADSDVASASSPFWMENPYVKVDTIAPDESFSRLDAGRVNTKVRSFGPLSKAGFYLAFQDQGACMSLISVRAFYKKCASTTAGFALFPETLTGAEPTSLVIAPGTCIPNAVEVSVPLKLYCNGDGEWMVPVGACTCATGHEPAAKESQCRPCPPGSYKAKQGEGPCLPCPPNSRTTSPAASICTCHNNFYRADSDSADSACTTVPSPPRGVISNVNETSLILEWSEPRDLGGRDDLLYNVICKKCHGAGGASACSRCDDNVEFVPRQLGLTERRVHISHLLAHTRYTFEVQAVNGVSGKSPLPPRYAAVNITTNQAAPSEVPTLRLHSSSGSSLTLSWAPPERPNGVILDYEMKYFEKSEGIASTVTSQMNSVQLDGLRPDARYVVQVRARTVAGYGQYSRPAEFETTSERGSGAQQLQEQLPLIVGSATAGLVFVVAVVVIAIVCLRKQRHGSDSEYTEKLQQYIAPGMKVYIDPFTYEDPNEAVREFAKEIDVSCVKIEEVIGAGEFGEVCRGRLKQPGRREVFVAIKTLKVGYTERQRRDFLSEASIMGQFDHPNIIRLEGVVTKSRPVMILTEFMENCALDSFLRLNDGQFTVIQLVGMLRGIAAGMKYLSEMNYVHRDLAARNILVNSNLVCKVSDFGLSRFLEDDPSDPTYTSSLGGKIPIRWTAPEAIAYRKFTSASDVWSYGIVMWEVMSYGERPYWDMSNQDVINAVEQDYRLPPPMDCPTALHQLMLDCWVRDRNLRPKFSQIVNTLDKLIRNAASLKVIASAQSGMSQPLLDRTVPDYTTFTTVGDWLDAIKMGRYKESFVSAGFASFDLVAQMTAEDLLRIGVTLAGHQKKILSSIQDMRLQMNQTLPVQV
Chain of Mitogen-activated protein kinase kinase kinase 20 (Homo sapiens) (Q9NYL2 2-800 limits assumed): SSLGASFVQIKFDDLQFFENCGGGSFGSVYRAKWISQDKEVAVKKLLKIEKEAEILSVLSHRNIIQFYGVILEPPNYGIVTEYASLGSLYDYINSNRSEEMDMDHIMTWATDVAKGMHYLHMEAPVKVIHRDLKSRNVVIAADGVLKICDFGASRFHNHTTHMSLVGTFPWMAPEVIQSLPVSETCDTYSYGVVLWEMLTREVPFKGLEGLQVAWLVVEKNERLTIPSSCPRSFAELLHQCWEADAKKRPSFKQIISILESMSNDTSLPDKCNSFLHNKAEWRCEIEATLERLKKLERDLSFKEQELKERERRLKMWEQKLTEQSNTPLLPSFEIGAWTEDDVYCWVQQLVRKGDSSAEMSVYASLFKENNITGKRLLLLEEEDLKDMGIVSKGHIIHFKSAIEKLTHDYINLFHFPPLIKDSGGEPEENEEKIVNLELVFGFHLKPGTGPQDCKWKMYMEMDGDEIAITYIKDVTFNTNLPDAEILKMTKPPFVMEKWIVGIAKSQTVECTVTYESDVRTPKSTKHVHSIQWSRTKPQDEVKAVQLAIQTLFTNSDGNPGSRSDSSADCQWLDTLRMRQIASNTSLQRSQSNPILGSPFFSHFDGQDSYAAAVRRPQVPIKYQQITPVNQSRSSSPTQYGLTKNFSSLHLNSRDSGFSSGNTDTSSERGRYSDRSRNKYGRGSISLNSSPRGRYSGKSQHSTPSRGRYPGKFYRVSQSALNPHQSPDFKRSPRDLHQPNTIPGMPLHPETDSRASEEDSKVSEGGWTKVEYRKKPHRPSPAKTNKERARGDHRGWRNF
Chain of Cyclin-G-associated kinase (O14976 whole entry): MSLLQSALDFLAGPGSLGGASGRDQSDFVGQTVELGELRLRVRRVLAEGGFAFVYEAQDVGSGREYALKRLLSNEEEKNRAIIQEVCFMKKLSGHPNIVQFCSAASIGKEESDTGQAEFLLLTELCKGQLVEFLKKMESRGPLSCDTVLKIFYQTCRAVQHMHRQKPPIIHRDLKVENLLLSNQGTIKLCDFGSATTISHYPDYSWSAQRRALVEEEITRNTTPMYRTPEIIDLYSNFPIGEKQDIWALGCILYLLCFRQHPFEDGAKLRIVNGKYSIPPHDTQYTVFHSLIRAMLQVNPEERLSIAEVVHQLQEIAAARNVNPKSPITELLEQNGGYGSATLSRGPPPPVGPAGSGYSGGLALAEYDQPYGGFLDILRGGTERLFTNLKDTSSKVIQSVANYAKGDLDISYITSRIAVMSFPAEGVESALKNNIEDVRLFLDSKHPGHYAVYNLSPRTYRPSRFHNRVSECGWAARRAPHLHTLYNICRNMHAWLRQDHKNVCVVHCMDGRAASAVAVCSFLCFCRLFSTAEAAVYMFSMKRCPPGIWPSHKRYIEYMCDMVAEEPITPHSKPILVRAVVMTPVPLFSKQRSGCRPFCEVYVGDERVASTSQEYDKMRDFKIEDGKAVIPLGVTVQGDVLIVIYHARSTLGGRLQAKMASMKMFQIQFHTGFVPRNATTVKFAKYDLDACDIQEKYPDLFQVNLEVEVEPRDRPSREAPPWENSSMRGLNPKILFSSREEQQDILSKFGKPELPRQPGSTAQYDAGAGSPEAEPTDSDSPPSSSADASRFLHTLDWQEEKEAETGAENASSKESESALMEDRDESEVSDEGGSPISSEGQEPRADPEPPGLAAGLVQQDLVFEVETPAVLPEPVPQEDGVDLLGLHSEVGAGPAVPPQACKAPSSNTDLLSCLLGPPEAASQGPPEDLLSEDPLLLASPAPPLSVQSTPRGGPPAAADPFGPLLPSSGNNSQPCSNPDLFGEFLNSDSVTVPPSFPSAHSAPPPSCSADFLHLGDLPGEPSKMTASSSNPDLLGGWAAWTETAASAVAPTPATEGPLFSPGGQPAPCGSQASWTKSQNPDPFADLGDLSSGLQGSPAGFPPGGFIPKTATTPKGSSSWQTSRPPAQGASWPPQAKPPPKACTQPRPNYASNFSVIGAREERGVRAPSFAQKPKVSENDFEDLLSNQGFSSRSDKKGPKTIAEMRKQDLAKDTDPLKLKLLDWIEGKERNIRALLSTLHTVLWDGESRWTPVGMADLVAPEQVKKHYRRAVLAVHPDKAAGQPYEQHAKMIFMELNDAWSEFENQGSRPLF
Chain of Serine/threonine-protein kinase Nek11 (Homo sapiens) (Q8NG66 whole entry): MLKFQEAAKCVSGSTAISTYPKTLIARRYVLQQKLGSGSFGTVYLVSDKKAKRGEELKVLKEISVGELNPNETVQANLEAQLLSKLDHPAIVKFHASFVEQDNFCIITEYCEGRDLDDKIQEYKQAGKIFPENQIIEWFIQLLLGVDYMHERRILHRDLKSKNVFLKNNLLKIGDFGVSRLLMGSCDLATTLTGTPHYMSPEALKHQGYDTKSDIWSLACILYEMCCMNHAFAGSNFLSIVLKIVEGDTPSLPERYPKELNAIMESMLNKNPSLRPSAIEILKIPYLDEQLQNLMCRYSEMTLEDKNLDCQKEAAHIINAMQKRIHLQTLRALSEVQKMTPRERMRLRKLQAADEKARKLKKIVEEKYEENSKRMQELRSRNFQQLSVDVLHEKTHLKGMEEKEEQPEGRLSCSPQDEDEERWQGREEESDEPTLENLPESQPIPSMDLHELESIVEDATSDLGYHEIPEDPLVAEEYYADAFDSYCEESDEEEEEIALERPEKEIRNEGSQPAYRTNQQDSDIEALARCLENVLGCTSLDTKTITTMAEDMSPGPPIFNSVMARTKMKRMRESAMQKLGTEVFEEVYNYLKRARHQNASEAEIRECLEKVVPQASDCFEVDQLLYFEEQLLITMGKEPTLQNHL
Chain of Insulin receptor (Homo sapiens) (P06213 28-758 limits assumed): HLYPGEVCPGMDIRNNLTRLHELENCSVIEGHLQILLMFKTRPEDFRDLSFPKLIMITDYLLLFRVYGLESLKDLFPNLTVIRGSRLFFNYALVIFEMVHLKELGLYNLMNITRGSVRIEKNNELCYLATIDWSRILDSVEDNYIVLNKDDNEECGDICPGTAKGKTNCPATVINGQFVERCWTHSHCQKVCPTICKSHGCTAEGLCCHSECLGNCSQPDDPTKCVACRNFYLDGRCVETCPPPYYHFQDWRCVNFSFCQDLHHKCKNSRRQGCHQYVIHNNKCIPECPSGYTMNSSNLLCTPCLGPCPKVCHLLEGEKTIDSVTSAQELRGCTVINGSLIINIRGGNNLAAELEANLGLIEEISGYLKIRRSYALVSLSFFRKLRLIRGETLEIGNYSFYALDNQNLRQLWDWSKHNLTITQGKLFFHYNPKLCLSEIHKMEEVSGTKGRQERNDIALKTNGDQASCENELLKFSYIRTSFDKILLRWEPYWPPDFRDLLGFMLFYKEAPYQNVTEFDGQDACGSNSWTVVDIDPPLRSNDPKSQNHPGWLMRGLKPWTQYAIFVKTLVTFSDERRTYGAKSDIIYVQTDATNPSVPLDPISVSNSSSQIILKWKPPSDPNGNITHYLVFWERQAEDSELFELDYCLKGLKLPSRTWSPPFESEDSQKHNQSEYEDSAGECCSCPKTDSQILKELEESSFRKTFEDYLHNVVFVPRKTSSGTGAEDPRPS
Chain of Insulin receptor (Homo sapiens) (P06213 763-1382 limits assumed): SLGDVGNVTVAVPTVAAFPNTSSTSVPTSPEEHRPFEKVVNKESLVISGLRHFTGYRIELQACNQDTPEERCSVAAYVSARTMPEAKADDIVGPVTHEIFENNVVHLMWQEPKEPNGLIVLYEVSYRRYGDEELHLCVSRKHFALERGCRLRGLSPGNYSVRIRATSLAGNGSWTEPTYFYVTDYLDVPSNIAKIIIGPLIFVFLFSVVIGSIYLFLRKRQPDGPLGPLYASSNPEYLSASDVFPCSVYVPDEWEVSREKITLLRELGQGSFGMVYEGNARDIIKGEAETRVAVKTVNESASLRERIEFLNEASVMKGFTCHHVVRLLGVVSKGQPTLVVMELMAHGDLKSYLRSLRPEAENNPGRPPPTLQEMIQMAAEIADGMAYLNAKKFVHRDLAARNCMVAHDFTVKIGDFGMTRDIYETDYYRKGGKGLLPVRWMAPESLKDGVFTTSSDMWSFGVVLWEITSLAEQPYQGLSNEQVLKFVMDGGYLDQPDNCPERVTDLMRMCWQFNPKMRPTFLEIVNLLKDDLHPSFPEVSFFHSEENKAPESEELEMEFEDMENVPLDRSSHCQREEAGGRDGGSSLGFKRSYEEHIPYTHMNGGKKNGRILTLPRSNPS

Structure (SMILES): Cc1cc2c(-c3ccc(NC(=O)[C@H](N)CC(C)(C)C)cc3C)ccnc2[nH]1
- activity [1]: 96%
- activity [2]: 95%
- activity [3]: 96%
- activity [4]: 79%
- activity [5]: 96%
- activity [6]: 118%
- activity [7]: 110%
- activity [8]: 83%
- activity [9]: 100%
- IC50 [10]: 6.2 µM (not active)
- activity [11]: 93%
- activity [12]: 104%
- activity [13]: 118%
- activity [14]: 82%
- IC50 [15]: > 10 µM (not active)
- activity [16]: 118%
- activity [17]: 81%
- activity [18]: 109%
- activity [19]: 97%
- activity [20]: 77%
- activity [21]: 94%
- activity [22]: 83%
- activity [23]: 97%
- activity [24]: 87%
- activity [25]: 99%
- activity [26]: 99%
- activity [27]: 100%
- activity (Homo sapiens): 109%
- activity [28]: 84%
- activity [29]: 80%
- activity [30]: 86%
- activity [31]: 103%
- activity [32]: 98%
- IC50 [33]: 5.5 µM (not active)
- activity [34]: 97%
- activity [35]: 102%
- activity [36]: 80%
- activity [37]: 93%
- activity [38]: 94%
- activity [39]: 88%
